# Source: a melting point compilation (Tetko et al.; mined from patent text by program, amines drawn as free bases though some values may be those of a salt)
row,Structure (SMILES),melting point
1,CN(Cc1ccncc1)Cc1ccc(CCC(=O)Nc2ccc(-c3ccc(Cl)cc3)cc2)cc1,102 °C
2,CC(=O)ON(C(=O)NN(C)C)C1c2ccccc2Oc2ccccc21,120 to 121 °C
3,CC1c2cc(C(C)(C)C)cc(C(C)(C)C)c2O[Si](C)(C)Oc2c1cc(C(C)(C)C)cc2C(C)(C)C,171 to 177 °C
4,COCCn1nc2ccccc2c1C(=O)NCC1CCN(CCc2ccccc2F)CC1,128 to 130 °C
5,CC1Cc2cc3c(cc2C(c2ccc([N+](=O)[O-])cc2)=NN1C#N)OCO3 (stereo not given),172 to 176 °C
6,CCN1CCCCC1c1ccccc1C=CC(=O)Nc1ccccc1 (stereo not given),120 to 122 °C
7,O=C1Cc2cc(F)ccc2N1CCCl,127 °C
8,COc1cnc(CS(C)(=O)=O)nc1OC(=O)NN1CCOCC1,138 °C
9,CCCOc1ccccc1-c1nc(C=NNC(=O)OCC)c[nH]1,129 to 132 °C
10,N=C(N)c1ccc(-c2ccc(N3CCN(CCC(=O)O)C3=O)cc2)cc1,> 200 °C
11,COC(=O)C1=C(C)Nc2ncnn2C1c1cccs1 (stereo not given),239 to 240 °C
12,COC(=O)Cc1ccc(-c2nc3ccccc3o2)cc1,109 to 112 °C
13,CC(C)(C)C(NC(=O)Cc1ccc(Cl)cc1)NC(=NC#N)c1cccc2ncccc12 (stereo not given),218 to 220 °C
14,CC(C)(c1ccc(Oc2cccc(N)c2)cc1)c1ccc(Oc2cccc(N)c2)cc1,106 to 108 °C
15,COc1cc(C=O)ccc1OCc1nc(-c2cccc(OS(C)(=O)=O)c2)oc1C,136 to 137 °C
16,CC(C)(C)OC(=O)c1ncn2c1[C@@H]1CCCN1C(=O)c1c-2cccc1S(C)(=O)=O,244 °C
17,CC(C)CCCC(C)C1CCC2C3CC4(OCCO4)C4CCCC(O)C4(C)C3CCC12C (stereo not given),96 to 98 °C
18,CC(=O)Nc1ccc(S(N)(=O)=O)cc1[N+](=O)[O-],182 to 183 °C
19,CC(Oc1cc2c(c(Cl)c1Cl)C(=O)C(C)(C1CCCC1)C2)C(=O)O (stereo not given),140 to 142 °C
20,NC(=O)CCCCCc1cccnc1,64 to 65 °C
21,COC(=O)c1cc2cc(C(=O)c3ccc(F)cc3)sc2s1,220 °C
22,CCCCOC(=O)c1ccc(NC2=NC3=NC(Nc4ccc(C(=O)OCCCC)cc4)=NC4=NC(Nc5ccc(C(=O)OCCCC)cc5)=NC(=N2)N34)cc1,289 to 290 °C
23,Cc1cccc2c1Sc1nccnc1N2,165 to 166 °C
24,Cn1c(=O)c2c(ncn2CC(O)Cc2noc(-c3ccccc3)n2)n(C)c1=O (stereo not given),179 to 180 °C
25,COc1ccc(CC2N(C)CCC(OC)(OC)C2(C)C)cc1 (stereo not given),91 to 92.5 °C

row,Structure (SMILES),melting point
1,O=c1c(Br)c(OCc2ccc(F)c(F)c2)ccn1Cc1cccc(F)c1,172 to 174 °C
2,Cc1cc2c(cc1O)C(C)(C)CC2,70 to 71 °C
3,Cc1c(CO)ncnc1N(C)C,46 to 48 °C
4,COc1ccc(C)cc1NC(=O)Nc1ccc(N2CCN(C(=O)Nc3ccc(OCCO)cc3C(F)(F)F)CC2)c(C)c1,225 to 228 °C
5,CCOc1cc(C(=O)NC2CC(C)(C)NC(C)(C)C2)ccc1-c1cc2cc(Cl)c(Cl)cc2[nH]1,253 to 255 °C
6,CCSC1=C(c2ccc(O)cc2)C(=O)c2cc(O)cc(O)c21,75 to 77 °C
7,Fc1cc(F)c2c(c1)CC(n1c(-c3nnn[nH]3)c[nH]c1=S)CC2 (stereo not given),214 to 215 °C
8,Cc1cc(SCc2ccc(-c3ccccc3)cc2)ccc1OCC(=O)O,138 °C
9,CS(=O)(=O)c1ccc(-c2cc(-c3nc4ccccc4c(=O)n3-c3ccccc3Cl)sc2N2CCOCC2)cc1,> 275 °C
10,COc1nc(NCCCN2CCOCC2)nc(OC)c1NC(=O)c1ccc(Oc2cncc([Si](C)(C)C)c2)o1,80 to 82 °C
11,CN1CCN(NC(=O)Nc2cccc3c2C(=O)c2c-3n[nH]c2-c2ccc(N3CCNCC3)cc2)CC1,254 °C
12,Cn1c(CCCOc2ccc(CC3SC(=O)N(C(c4ccccc4)(c4ccccc4)c4ccccc4)C3=O)cc2)nc2cccnc21 (stereo not given),76 to 81 °C
13,CC(=O)Nc1ccc2c(c1)N1CCN=C1S2,268 °C
14,CCNc1ccc(F)cc1OCc1ccccc1,58 to 59 °C
15,Cc1ccc2c3ccccc3n(CC(O)CN3CCNCC3c3ccc(Cl)c(Cl)c3)c2c1 (stereo not given),140 °C
16,CCCCCCCCCCCCC#CC(F)(CCCCC(=O)O)CCCCC(=O)O,98 to 100 °C
17,O=C(OC(c1ccccc1)c1ccccc1)C(O)Cc1ccc(F)cc1 (stereo not given),52 to 54 °C
18,O=S(=O)(Cc1ccccc1)c1ncc(Br)cn1,142 to 143 °C
19,Fc1ccc(F)c(-c2coc3ccc(-c4nnc(S)o4)cc23)c1,206 to 207 °C
20,CCOC(=O)C1=Cc2cccc(NC(=O)CCCCl)c2OCC1,98 to 99 °C
21,O=C(O)Cc1ccc(CC2CCCCC2=O)cc1 (stereo not given),71.5 to 72.5 °C
22,OCCOCc1c(Br)c(Br)c(COCCO)c(Br)c1Br,145 to 147 °C
23,O=[N+]([O-])C=Cc1cc(Br)ccc1O,165 to 167 °C
24,CCc1ccc(-c2ccc(C(=O)c3ccccc3)cc2)cc1,106 to 108 °C
25,COc1ccccc1N1CCN(CC2Cc3cc(C)c4[nH]c(=O)ccc4c3O2)CC1 (stereo not given),163 to 166 °C

row,Structure (SMILES),melting point
1,O=C(c1ccoc1)N1CCC(O)(C#Cc2cccc(Cl)c2)CC1,93 to 94 °C
2,CC1(C)CC(N2CCCC2)c2sccc2O1 (stereo not given),49 to 50 °C
3,Cc1ccccc1COCC1OC(n2cc(C(F)(F)F)c(=O)[nH]c2=O)CC1O (stereo not given),178 to 179 °C
4,CCOC(=O)c1cnc2ccnn2c1O,81 °C
5,NC(=S)NC[C@H]1CN(c2ccc(N3CCOCC3)c(F)c2)C(=O)O1,199 to 200 °C
6,COc1ccc(/C=C/c2cc(/C=C/c3ccc4[nH]ccc4c3)n[nH]2)cc1OCc1ccccn1,109 to 118 °C
7,COc1ccc(C2=C(c3ccc(S(N)(=O)=O)cc3)CCC2)cc1F,170 to 171 °C
8,CCC(C)Sc1cc(C(=O)O)cc(N)c1Oc1ccccc1 (stereo not given),157 to 159 °C
9,O=C(Nc1cc(Cl)c(O)c(Cl)c1)c1cc(F)ccc1O,227 to 229 °C
10,Oc1ccc(N2CCN(CC[C@H]3CC[C@H](Nc4ncccn4)CC3)CC2)cc1,192 to 194 °C
11,COC(=O)c1nn(-c2ccc(OCc3ccccc3)cc2F)cc(OC)c1=O,143 to 144 °C
12,CCc1ccc2nc(Cl)nc(Cl)c2c1,80 to 83 °C
13,N#Cc1cc(NC(=O)c2ccn(-c3ccc(F)cc3)c2)ccc1N1CCN(C2CCOCC2)CC1,240 °C
14,CCS(=O)(=O)N[C@H]1CC[C@H](CCN2CCC(c3cccc4c3CCO4)CC2)CC1,131 °C
15,N#CC(=C(C#N)c1ccc(F)cc1)c1ccc(F)cc1,194 to 195 °C
16,CC1CC(=O)N(c2ccc(F)cc2)C(=S)C1 (stereo not given),84.5 to 87.5 °C
17,O=c1c2c([nH]c3nc(NCc4ccccc4)nn13)CCCS2,332 to 335 °C
18,CNC(=O)ON=C1OCCOC1(C)C,144 to 146 °C
19,Cc1nc2n(c(=O)c1CCCl)CCCC2OCc1ccccc1 (stereo not given),140 to 141 °C
20,O=Cc1c(O)ccc2ncccc12,136 to 137 °C
21,CCOC(=O)c1c(S(=O)C(C)C)c2cc(OCc3ccccc3)ccc2n1C (stereo not given),142 to 145 °C
22,Cc1cc(O)c(S(=O)(=O)C(C)(C)C)c(=O)o1,119 to 120 °C
23,COc1ccc2c(c1)C(=O)C(C)(C)CC2c1ccc(Cl)cc1 (stereo not given),135 to 138 °C
24,O=C(c1ccc(NC(=O)C(O)(C(F)F)C(F)F)cc1)c1ccccn1,158 to 161 °C
25,O=C(Nc1cccc(-n2nc(C(F)(F)F)cc2C(F)(F)F)c1)c1ccc(F)cc1F,133 to 134 °C

row,Structure (SMILES),melting point
1,COc1c(Cl)ccc(-c2cc(N)c(Cl)c(C(=O)NO)n2)c1F,166 to 169 °C
2,Cc1cc(-c2cnn3c(C(F)F)cc(-c4ccc(C(F)(F)F)cc4)nc23)ccn1,213 °C
3,Cc1cncc(C)c1-c1c(C)cc(N)cc1C,134 to 135 °C
4,OCC(O)CNc1nnc(-c2ccc(F)c(F)c2Nc2ccc(I)cc2F)o1 (stereo not given),157 to 159 °C
5,COCC1OC(n2cnc3c(NC4CCCC4)ncnc32)C(O)C1O (stereo not given),164 to 166 °C
6,CCOc1ccccc1O[C@@H](c1ccccc1)[C@@H](CO)OS(C)(=O)=O (racemic),83 to 86 °C
7,COc1ccc(C(=O)c2cccc(S(N)(=O)=O)c2)cc1,119 to 122 °C
8,CC(=O)SC(CC(=O)c1ccc(Cl)c(Cl)c1)C(=O)O (stereo not given),102 to 105 °C
9,COc1cc(N)c(Cl)cc1C(=O)NCC1CCN(CCCCSc2ccccc2)CC1,102 to 105 °C
10,CS(=O)(=O)c1ccc(-n2nc(C(F)(F)F)cc2-c2ccc([N+](=O)[O-])cc2)cc1,203 to 205 °C
11,CN1C(=O)CN=C(c2ccccn2)c2cc(C#C[Si](C)(C)C)ccc21,194 to 195 °C
12,C=C(CC)C(=O)c1ccc(OCCCC(=O)O)c(Cl)c1Cl,87 to 89 °C
13,Cc1cccc(C(=O)O)c1N(C)S(=O)(=O)c1ccc(OCCCNC(=O)c2cc3ccccc3[nH]2)cc1,199 °C
14,Cn1c(=O)oc2cc(C(=O)CCN3CCN(c4ccc(F)cc4)CC3)ccc21,149 °C
15,NC1=NC(=O)N(c2ccccc2)C1,277 to 279 °C
16,ClCc1ccc(OCCCCc2ccccc2)cc1,60 to 62 °C
17,S=C(Nc1ccccc1)N1CCc2[nH]cnc2C1,205 °C
18,Cc1cc2c(cc1C(F)(F)F)NC(=O)CC(c1cccc(-c3ncoc3C)c1)=N2,241 to 242 °C
19,CNC(=O)c1cc2nc(C(F)(F)F)ccc2c(OC)c1NC(=O)c1cc(C(F)(F)F)nn1-c1ncccc1Cl,209 to 211 °C
20,O=S1(=O)NCN(C2CC2)c2c1ccc(F)c2Cl,141 to 143 °C
21,COC(=O)c1ccc(/C=C/C(=O)NOC2CCCCO2)s1 (stereo not given),177 °C
22,C=COc1ccc(C(=O)c2ccccc2)cc1,58 °C
23,CC(C)c1c(C(=O)Nc2ccccc2)c(-c2ccccc2)c(-c2ccc(F)cc2)n1CC[C@@H]1C[C@H](CC(=O)OC(C)(C)C)OC(C)(C)O1,140 to 142 °C
24,O=C(N[C@H](Cc1cccc(C(F)(F)F)c1)[C@@H](O)c1ccc(F)cc1)c1cccc2ccccc12 (racemic),158 to 159 °C
25,O=C(O)COc1ccc([N+](=O)[O-])c(C(F)(F)F)c1,92 to 95 °C
